Read-outs that look alike come from different tables or passages of the source.
Legend:
Assay in all cases: biochemical
Type in all cases: binding
[1] = target: panel of 468 diverse kinases (Homo sapiens, UniProt O14920); conditions: IKK-beta; 1000 nM; read-out: Percent Control
[2] = target: panel of 468 diverse kinases (Homo sapiens, UniProt O15197); conditions: EPHB6; 1000 nM; read-out: Percent Control
[3] = target: panel of 468 diverse kinases (Homo sapiens, UniProt O94768); conditions: DRAK2; 1000 nM; read-out: Percent Control
[4] = target: panel of 468 diverse kinases (Homo sapiens, UniProt O94921); conditions: PFTK1; 1000 nM; read-out: Percent Control
[5] = target: panel of 468 diverse kinases (Homo sapiens, UniProt O95382); conditions: ASK2; 1000 nM; read-out: Percent Control
[6] = target: panel of 468 diverse kinases (Homo sapiens, UniProt P00519, M351T); conditions: ABL1(M351T)-phosphorylated; 1000 nM; read-out: Percent Control
[7] = target: panel of 468 diverse kinases (Homo sapiens, UniProt P00533, G719C); conditions: EGFR(G719C); 1000 nM; read-out: Percent Control
Sequence of panel of 468 diverse kinases (Homo sapiens, UniProt P00533, G719C) (P00533 25-1210 G719C limits assumed): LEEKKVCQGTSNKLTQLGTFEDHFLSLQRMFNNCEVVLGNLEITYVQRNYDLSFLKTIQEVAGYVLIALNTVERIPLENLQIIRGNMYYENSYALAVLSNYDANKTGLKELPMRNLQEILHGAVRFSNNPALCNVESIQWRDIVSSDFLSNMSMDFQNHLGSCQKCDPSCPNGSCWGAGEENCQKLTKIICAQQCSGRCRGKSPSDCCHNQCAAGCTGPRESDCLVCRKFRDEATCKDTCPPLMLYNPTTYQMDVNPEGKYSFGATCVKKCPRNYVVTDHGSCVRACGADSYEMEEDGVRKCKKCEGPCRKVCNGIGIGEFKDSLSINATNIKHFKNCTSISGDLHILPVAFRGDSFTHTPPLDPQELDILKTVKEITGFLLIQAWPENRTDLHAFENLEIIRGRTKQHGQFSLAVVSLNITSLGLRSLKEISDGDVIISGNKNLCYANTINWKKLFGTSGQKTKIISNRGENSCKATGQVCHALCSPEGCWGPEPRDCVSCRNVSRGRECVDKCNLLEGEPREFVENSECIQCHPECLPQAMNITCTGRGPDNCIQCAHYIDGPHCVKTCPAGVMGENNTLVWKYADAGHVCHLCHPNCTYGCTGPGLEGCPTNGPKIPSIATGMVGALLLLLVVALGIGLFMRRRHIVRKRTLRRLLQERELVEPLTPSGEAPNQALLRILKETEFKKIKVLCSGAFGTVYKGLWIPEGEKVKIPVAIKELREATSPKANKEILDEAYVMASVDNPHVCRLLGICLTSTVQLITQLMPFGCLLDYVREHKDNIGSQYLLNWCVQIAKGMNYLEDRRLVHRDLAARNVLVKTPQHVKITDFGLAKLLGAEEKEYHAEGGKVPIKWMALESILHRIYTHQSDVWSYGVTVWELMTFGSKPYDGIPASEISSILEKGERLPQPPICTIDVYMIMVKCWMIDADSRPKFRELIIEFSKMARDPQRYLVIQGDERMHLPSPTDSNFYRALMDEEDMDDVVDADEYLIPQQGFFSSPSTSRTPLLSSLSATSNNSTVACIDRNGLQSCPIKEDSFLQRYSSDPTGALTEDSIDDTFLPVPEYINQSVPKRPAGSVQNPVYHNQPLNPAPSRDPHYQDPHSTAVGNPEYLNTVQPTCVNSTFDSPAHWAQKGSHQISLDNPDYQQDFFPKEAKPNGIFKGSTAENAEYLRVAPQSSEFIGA

[8] = target: panel of 468 diverse kinases (Homo sapiens, UniProt P04626); conditions: ERBB2; 1000 nM; read-out: Percent Control
Sequence of panel of 468 diverse kinases (Homo sapiens, UniProt P04626) (P04626 23-1255 limits assumed): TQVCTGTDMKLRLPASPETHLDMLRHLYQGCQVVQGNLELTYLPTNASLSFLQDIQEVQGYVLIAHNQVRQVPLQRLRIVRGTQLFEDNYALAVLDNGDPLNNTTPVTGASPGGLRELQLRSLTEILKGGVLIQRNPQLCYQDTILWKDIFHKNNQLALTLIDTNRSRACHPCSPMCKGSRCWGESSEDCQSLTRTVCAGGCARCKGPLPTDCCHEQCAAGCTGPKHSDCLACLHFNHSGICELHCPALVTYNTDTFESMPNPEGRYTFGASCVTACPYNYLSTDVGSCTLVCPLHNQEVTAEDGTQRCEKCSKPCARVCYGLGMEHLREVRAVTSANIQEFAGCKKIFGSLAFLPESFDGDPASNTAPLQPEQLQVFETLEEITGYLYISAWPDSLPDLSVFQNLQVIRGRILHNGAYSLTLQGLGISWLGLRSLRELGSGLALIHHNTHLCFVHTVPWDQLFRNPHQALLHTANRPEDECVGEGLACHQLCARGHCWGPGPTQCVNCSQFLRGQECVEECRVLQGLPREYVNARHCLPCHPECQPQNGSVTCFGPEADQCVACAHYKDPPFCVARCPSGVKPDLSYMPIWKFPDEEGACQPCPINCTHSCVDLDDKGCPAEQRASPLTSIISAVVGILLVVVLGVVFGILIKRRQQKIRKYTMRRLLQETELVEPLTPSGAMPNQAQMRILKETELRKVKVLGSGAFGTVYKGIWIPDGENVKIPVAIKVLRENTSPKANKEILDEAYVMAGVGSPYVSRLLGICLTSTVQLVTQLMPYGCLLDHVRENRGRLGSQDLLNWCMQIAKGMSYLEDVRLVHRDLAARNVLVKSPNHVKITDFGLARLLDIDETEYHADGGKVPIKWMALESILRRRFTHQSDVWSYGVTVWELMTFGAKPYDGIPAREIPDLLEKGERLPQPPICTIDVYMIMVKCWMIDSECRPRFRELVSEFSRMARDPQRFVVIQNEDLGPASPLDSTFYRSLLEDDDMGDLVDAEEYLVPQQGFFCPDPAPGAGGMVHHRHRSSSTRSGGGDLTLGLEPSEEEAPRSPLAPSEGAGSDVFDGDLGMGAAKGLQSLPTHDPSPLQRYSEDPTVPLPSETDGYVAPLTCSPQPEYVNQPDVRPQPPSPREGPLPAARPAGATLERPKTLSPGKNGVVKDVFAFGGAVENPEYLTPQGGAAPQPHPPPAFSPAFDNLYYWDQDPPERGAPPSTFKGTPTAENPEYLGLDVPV

[9] = target: panel of 468 diverse kinases (Homo sapiens, UniProt P0C1S8); conditions: WEE2; 1000 nM; read-out: Percent Control
[10] = target: panel of 468 diverse kinases (Homo sapiens, UniProt P11802); conditions: 1000 nM, read-out: Percent Control
Sequence of panel of 468 diverse kinases (Homo sapiens, UniProt P11802) (P11802 2-303 limits assumed): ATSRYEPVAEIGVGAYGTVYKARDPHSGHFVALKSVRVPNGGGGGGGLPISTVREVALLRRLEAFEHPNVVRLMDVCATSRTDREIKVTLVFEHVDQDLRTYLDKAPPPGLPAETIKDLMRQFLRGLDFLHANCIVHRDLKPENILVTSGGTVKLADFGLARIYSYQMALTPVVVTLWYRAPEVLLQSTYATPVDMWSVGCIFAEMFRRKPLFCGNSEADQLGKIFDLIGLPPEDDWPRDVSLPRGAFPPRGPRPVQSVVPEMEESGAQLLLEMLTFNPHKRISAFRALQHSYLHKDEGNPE

[11] = target: panel of 468 diverse kinases (Homo sapiens, UniProt P12931); conditions: SRC; 1000 nM; read-out: Percent Control
Sequence of panel of 468 diverse kinases (Homo sapiens, UniProt P12931) (P12931 2-536 limits assumed): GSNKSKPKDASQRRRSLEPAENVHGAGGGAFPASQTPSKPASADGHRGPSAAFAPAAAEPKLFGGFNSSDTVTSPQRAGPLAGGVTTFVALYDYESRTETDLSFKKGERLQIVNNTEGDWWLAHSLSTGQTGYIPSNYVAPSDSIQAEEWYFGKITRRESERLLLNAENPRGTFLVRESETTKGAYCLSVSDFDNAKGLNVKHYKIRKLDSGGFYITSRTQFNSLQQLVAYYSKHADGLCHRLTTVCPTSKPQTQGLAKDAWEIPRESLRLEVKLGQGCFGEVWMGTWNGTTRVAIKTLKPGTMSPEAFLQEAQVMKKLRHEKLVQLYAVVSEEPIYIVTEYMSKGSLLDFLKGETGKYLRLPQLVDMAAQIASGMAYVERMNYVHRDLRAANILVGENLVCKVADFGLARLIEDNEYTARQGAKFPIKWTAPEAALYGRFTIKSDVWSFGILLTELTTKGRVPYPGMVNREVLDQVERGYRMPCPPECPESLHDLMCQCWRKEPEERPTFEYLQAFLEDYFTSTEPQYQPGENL

[12] = target: panel of 468 diverse kinases (Homo sapiens, UniProt P31749); conditions: AKT1; 1000 nM; read-out: Percent Control
[13] = target: panel of 468 diverse kinases (Homo sapiens, UniProt P42336, E545K); conditions: PIK3CA(E545K); 1000 nM; read-out: Percent Control
[14] = target: panel of 468 diverse kinases (Homo sapiens, UniProt P42681); conditions: TXK; 1000 nM; read-out: Percent Control
[15] = target: panel of 468 diverse kinases (Homo sapiens, UniProt P50613); conditions: CDK7; 1000 nM; read-out: Percent Control
[16] = target: panel of 468 diverse kinases (Homo sapiens, UniProt Q00536); conditions: PCTK1; 1000 nM; read-out: Percent Control
[17] = target: panel of 468 diverse kinases (Homo sapiens, UniProt Q13164); conditions: ERK5; 1000 nM; read-out: Percent Control
Sequence of panel of 468 diverse kinases (Homo sapiens, UniProt Q13164) (Q13164 2-816 limits assumed): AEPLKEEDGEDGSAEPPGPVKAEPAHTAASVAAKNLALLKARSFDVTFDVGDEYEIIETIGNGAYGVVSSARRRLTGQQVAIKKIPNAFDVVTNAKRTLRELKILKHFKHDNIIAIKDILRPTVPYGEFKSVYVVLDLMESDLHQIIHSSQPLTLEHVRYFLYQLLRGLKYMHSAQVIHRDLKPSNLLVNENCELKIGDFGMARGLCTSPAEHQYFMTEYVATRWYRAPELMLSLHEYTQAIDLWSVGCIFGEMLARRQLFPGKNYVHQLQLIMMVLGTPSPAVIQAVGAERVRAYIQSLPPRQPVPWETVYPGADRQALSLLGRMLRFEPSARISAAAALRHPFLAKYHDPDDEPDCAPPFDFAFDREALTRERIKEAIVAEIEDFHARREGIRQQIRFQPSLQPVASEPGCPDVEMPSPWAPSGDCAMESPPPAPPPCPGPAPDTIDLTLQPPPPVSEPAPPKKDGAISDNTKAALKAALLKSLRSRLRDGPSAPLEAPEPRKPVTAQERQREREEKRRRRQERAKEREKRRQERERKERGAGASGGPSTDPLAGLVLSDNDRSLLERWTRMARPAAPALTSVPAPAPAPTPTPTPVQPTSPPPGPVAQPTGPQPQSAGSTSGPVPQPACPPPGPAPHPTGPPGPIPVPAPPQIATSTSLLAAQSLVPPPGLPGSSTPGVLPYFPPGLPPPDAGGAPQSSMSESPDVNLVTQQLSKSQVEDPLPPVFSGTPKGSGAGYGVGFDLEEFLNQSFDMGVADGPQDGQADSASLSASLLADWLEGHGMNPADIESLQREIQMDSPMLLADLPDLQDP

[18] = target: panel of 468 diverse kinases (Homo sapiens, UniProt Q13237); conditions: PRKG2; 1000 nM; read-out: Percent Control
[19] = target: panel of 468 diverse kinases (Homo sapiens, UniProt Q2M2I8); conditions: AAK1; 1000 nM; read-out: Percent Control
[20] = target: panel of 468 diverse kinases (Homo sapiens, UniProt Q6P3R8); conditions: NEK5; 1000 nM; read-out: Percent Control
[21] = target: panel of 468 diverse kinases (Homo sapiens, UniProt Q8IVW4); conditions: CDKL3; 1000 nM; read-out: Percent Control
[22] = target: panel of 468 diverse kinases (Homo sapiens, UniProt Q8TDR2); conditions: STK35; 1000 nM; read-out: Percent Control
[23] = target: panel of 468 diverse kinases (Homo sapiens, UniProt Q96BR1); conditions: SGK3; 1000 nM; read-out: Percent Control
[24] = target: panel of 468 diverse kinases (Homo sapiens, UniProt Q9NRM7); conditions: LATS2; 1000 nM; read-out: Percent Control
[25] = target: panel of 468 diverse kinases (Homo sapiens, UniProt Q9NY57); conditions: YANK2; 1000 nM; read-out: Percent Control
[26] = target: panel of 468 diverse kinases (Homo sapiens, UniProt Q9UBF8); conditions: PIK4CB; 1000 nM; read-out: Percent Control
Sequence of panel of 468 diverse kinases (Homo sapiens, UniProt Q9UBF8) (Q9UBF8 2-816 limits assumed): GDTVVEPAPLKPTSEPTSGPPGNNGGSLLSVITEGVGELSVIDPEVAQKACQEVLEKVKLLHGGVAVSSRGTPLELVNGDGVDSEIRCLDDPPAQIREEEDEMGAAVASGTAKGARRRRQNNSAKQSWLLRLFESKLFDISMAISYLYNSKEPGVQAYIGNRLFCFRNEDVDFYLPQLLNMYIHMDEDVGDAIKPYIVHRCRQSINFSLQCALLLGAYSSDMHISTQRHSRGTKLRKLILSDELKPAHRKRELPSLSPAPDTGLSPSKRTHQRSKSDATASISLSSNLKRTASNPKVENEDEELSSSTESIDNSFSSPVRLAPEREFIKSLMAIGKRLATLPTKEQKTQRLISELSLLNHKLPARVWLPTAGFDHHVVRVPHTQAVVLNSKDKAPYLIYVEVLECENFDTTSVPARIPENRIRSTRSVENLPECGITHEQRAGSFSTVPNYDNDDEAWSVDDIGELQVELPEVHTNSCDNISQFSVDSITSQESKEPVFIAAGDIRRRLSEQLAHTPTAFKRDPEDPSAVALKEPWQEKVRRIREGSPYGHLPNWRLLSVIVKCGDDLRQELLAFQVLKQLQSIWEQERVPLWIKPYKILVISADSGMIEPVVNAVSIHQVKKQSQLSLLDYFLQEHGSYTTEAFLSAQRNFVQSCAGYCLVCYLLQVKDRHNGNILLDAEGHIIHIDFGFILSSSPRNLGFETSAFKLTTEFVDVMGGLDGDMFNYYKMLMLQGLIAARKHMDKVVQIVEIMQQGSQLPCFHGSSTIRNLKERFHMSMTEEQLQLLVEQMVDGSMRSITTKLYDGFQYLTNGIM

[27] = target: panel of 468 diverse kinases (Homo sapiens, UniProt Q9UEE5); conditions: DRAK1; 1000 nM; read-out: Percent Control
[28] = target: panel of 468 diverse kinases (Homo sapiens, UniProt Q9UF33); conditions: EPHA6; 1000 nM; read-out: Percent Control
[29] = target: panel of 468 diverse kinases (Homo sapiens, UniProt Q9UHD2); conditions: TBK1; 1000 nM; read-out: Percent Control
[30] = target: panel of 468 diverse kinases (Homo sapiens, UniProt Q9UQ88); conditions: CDC2L2; 1000 nM; read-out: Percent Control
[31] = target: panel of 468 diverse kinases (Homo sapiens, UniProt Q9Y5S2); conditions: MRCKB; 1000 nM; read-out: Percent Control

For `COc1cc2nc(NC3CC3)nc(NC3CCN(C(C)C)CC3)c2cc1OC` [Formula IV], which remaining activity at 1 µM [1] is on record?
Its remaining activity at 1 µM is 66%.

What about the remaining activity at 1 µM [2] of the same compound?
The remaining activity at 1 µM was 81%.

And the remaining activity at 1 µM [3]?
Its remaining activity at 1 µM is 79%.

And the remaining activity at 1 µM [4]?
Its remaining activity at 1 µM is 98%.

What about the remaining activity at 1 µM [5] of the same compound?
Its remaining activity at 1 µM is 93%.

And the remaining activity at 1 µM [6]?
Its remaining activity at 1 µM is 59%.

What about the remaining activity at 1 µM [7] of the same compound?
The remaining activity at 1 µM was 91%.

And the remaining activity at 1 µM [8]?
Its remaining activity at 1 µM is 100%.

What about the remaining activity at 1 µM [9] of the same compound?
Its remaining activity at 1 µM is 96%.

What about the remaining activity at 1 µM ([10]; CDK4-cyclinD1) of the same compound?
Its remaining activity at 1 µM is 67%.

What about the remaining activity at 1 µM ([10]; CDK4-cyclinD3) of the same compound?
The remaining activity at 1 µM was 54%.

What about the remaining activity at 1 µM ([10]; CDK4) of the same compound?
Its remaining activity at 1 µM is 62%.

What about the remaining activity at 1 µM [11] of the same compound?
The remaining activity at 1 µM was 97%.

What about the remaining activity at 1 µM [12] of the same compound?
Its remaining activity at 1 µM is 95%.

And the remaining activity at 1 µM [13]?
Its remaining activity at 1 µM is 48%.

And the remaining activity at 1 µM [14]?
Its remaining activity at 1 µM is 98%.

What about the remaining activity at 1 µM [15] of the same compound?
The remaining activity at 1 µM was 69%.

What about the remaining activity at 1 µM [16] of the same compound?
Its remaining activity at 1 µM is 43%.

What about the remaining activity at 1 µM [17] of the same compound?
Its remaining activity at 1 µM is 86%.

What about the remaining activity at 1 µM [18] of the same compound?
Its remaining activity at 1 µM is 88%.

What about the remaining activity at 1 µM [19] of the same compound?
Its remaining activity at 1 µM is 91%.

And the remaining activity at 1 µM [20]?
The remaining activity at 1 µM was 90%.

What about the remaining activity at 1 µM [21] of the same compound?
The remaining activity at 1 µM was 66%.

What about the remaining activity at 1 µM [22] of the same compound?
Its remaining activity at 1 µM is 94%.

And the remaining activity at 1 µM [23]?
Its remaining activity at 1 µM is 60%.

And the remaining activity at 1 µM [24]?
The remaining activity at 1 µM was 95%.

And the remaining activity at 1 µM [25]?
The remaining activity at 1 µM was 56%.

And the remaining activity at 1 µM [26]?
Its remaining activity at 1 µM is 100%.

What about the remaining activity at 1 µM [27] of the same compound?
The remaining activity at 1 µM was 96%.

What about the remaining activity at 1 µM [28] of the same compound?
The remaining activity at 1 µM was 100%.

And the remaining activity at 1 µM [29]?
Its remaining activity at 1 µM is 98%.

And the remaining activity at 1 µM [30]?
The remaining activity at 1 µM was 99%.

And the remaining activity at 1 µM [31]?
Its remaining activity at 1 µM is 92%.
